Results as given in patent US20220168431A1, “METHODS OF TREATING CANCER USING TRIMETAZIDINE-BASED COMPOUNDS” (IMBRIA PHARMACEUTICALS, INC., priority 2019, published 2022).

Experiments:
Cannabinoid CB2 = Cannabinoid CB2 (Homo sapiens, UniProt P34972); assay type: binding; conditions: 10 μM CV-8814
Adrenergic α2B = Adrenergic α2B (Homo sapiens, UniProt P18089); assay type: binding; conditions: 10 μM CV-8814
Chemokine CXCR2 (IL-8RB) = Chemokine CXCR2 (IL-8RB) (Homo sapiens, UniProt P25025); assay type: binding; conditions: 10 μM CV-8814
Opiate δ1 (OP1, DOP) = Opiate δ1 (OP1, DOP) (Homo sapiens, UniProt P41143); assay type: binding; conditions: 10 μM CV-8814
Dopamine D2S = Dopamine D2S (Homo sapiens, UniProt P14416); assay type: binding; conditions: 10 μM CV-8814
Melanocortin MC4 = Melanocortin MC4 (Homo sapiens, UniProt P32245); assay type: binding; conditions: 10 μM CV-8814
Dopamine D2L = Dopamine D2L (Homo sapiens, UniProt P14416); assay type: binding; conditions: 10 μM CV-8814
Muscarinic M4 = Muscarinic M4 (Homo sapiens, UniProt P08173); assay type: binding; conditions: 10 μM CV-8814
Opiate κ (OP2, KOP) = Opiate κ (OP2, KOP) (Homo sapiens, UniProt P41145); assay type: binding; conditions: 10 μM CV-8814
Cyclooxygenase COX-2 = Cyclooxygenase COX-2 (Homo sapiens, UniProt P35354); assay type: biochemical; conditions: 10 μM CV-8814
Chemokine CCR1 = Chemokine CCR1 (Homo sapiens, UniProt P32246); assay type: binding; conditions: 10 μM CV-8814
Tachykinin NK1 = Tachykinin NK1 (Homo sapiens, UniProt P25103); assay type: binding; conditions: 10 μM CV-8814
[1] = target: Nicotinic Acetylcholine α1, Bungarotoxin (Homo sapiens, UniProt P02708+P07510+Q07001); assay: biochemical; assay type: binding
Bradykinin B2 = Bradykinin B2 (Homo sapiens, UniProt P30411); assay type: binding; conditions: 10 μM CV-8814
Monoamine Oxidase MAO-A = Monoamine Oxidase MAO-A (Homo sapiens, UniProt P21397); assay type: biochemical; conditions: 10 μM CV-8814
Opiate μ (OP3, MOP) = Opiate μ (OP3, MOP) (Homo sapiens, UniProt P35372); assay type: binding; conditions: 10 μM CV-8814
[2] = target: Transporter, Serotonin (5-Hydroxytryptamine) (SERT) (Homo sapiens, UniProt P31645); assay type: binding; conditions: 10 μM CV-8814
[3] = target: Cholecystokinin CCK1 (CCKA) (Homo sapiens, UniProt P32238); assay type: binding; conditions: 10 μM CV-8814
Adenosine A1 = Adenosine A1 (Homo sapiens, UniProt P30542); assay type: binding; conditions: 10 μM CV-8814
[4] = target: Peptidase, CTSG (Cathepsin G) (Homo sapiens, UniProt P08311); assay type: biochemical; conditions: 10 μM CV-8814
[5] = target: Serotonin (5-Hydroxytryptamine) 5-HT2C (Homo sapiens, UniProt P28335); assay type: binding; conditions: 10 μM CV-8814
Adrenergic β1 = Adrenergic β1 (Homo sapiens, UniProt P08588); assay type: binding; conditions: 10 μM CV-8814
Adrenergic α1D = Adrenergic α1D (Homo sapiens, UniProt P25100); assay type: binding; conditions: 10 μM CV-8814
Cannabinoid CB1 = Cannabinoid CB1 (Homo sapiens, UniProt P21554); assay type: binding; conditions: 10 μM CV-8814
[6] = target: Glutamate, Metabotropic, mGlu5 (Homo sapiens, UniProt P41594); assay type: binding; conditions: 10 μM CV-8814
[7] = target: Serotonin (5-Hydroxytryptamine) 5-HT1A (Homo sapiens, UniProt P08908); assay type: binding; conditions: 10 μM CV-8814
Adrenergic α2A = Adrenergic α2A (Homo sapiens, UniProt P08913); assay type: binding; conditions: 10 μM CV-8814
Monoamine Oxidase MAO-B = Monoamine Oxidase MAO-B (Homo sapiens, UniProt P27338); assay type: biochemical; conditions: 10 μM CV-8814
[8] = target: Cholinesterase, Acetyl, ACES (Homo sapiens, UniProt P22303); assay type: biochemical; conditions: 10 μM CV-8814
Adrenergic β2 = Adrenergic β2 (Homo sapiens, UniProt P07550); assay type: binding; conditions: 10 μM CV-8814
Muscarinic M2 = Muscarinic M2 (Homo sapiens, UniProt P08172); assay type: binding; conditions: 10 μM CV-8814
Angiotensin AT1 = Angiotensin AT1 (Homo sapiens, UniProt P30556); assay type: binding; conditions: 10 μM CV-8814
[9] = target: Platelet Activating Factor (PAF) (Homo sapiens, UniProt P25105); assay type: binding; conditions: 10 μM CV-8814
Cyclooxygenase COX-1 = Cyclooxygenase COX-1 (Homo sapiens, UniProt P23219); assay type: biochemical; conditions: 10 μM CV-8814
Adenosine A2A = Adenosine A2A (Homo sapiens, UniProt P29274); assay type: binding; conditions: 10 μM CV-8814
Estrogen ERα = Estrogen ERα (Homo sapiens, UniProt P03372); assay type: binding; conditions: 10 μM CV-8814
Muscarinic M1 = Muscarinic M1 (Homo sapiens, UniProt P11229); assay type: binding; conditions: 10 μM CV-8814
Histamine H2 = Histamine H2 (Homo sapiens, UniProt P25021); assay type: binding; conditions: 10 μM CV-8814
Neuropeptide Y Y1 = Neuropeptide Y Y1 (Homo sapiens, UniProt P25929); assay type: binding; conditions: 10 μM CV-8814

Measured: inhibition at 10 µM

Chain of Nicotinic Acetylcholine α1, Bungarotoxin (P02708 21-457): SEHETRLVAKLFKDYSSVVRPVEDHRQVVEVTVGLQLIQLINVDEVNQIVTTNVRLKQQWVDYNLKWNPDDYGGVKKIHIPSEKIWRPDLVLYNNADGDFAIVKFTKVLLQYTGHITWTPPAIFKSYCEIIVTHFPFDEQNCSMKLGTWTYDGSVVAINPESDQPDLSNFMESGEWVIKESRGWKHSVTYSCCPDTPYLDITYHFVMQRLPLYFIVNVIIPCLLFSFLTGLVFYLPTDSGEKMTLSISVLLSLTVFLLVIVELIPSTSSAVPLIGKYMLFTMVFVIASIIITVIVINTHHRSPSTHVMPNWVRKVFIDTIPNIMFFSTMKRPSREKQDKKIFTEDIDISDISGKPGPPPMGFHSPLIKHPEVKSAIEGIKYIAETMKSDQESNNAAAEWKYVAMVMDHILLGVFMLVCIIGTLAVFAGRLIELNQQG
Chain of Nicotinic Acetylcholine α1, Bungarotoxin (Q07001 22-517): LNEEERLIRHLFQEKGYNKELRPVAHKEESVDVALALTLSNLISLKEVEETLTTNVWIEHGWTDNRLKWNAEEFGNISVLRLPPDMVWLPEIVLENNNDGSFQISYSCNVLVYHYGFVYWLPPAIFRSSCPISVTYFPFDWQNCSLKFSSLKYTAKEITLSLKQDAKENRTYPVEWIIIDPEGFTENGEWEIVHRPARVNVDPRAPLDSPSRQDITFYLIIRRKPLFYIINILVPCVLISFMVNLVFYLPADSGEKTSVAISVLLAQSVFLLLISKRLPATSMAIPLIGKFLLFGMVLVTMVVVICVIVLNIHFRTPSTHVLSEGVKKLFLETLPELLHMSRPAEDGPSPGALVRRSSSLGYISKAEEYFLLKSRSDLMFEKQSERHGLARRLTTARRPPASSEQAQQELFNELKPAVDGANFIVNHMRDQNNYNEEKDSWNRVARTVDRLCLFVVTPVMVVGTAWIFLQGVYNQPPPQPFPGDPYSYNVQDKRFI
Chain of Nicotinic Acetylcholine α1, Bungarotoxin (P11230 24-501, further chain): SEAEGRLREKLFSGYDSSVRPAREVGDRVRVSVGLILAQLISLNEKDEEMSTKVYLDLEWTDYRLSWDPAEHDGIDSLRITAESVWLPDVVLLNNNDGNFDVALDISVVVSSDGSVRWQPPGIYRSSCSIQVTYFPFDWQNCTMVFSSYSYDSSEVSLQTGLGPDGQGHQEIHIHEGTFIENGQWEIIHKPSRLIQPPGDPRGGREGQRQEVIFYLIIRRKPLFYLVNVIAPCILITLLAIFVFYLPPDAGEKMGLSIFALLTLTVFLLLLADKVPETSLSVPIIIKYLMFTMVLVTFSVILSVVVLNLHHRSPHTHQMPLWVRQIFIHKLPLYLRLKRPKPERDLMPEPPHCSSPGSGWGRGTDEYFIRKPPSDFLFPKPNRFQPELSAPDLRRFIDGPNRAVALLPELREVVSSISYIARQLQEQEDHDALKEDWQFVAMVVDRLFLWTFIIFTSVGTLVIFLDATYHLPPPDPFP
Chain of Nicotinic Acetylcholine α1, Bungarotoxin (P07510 23-517): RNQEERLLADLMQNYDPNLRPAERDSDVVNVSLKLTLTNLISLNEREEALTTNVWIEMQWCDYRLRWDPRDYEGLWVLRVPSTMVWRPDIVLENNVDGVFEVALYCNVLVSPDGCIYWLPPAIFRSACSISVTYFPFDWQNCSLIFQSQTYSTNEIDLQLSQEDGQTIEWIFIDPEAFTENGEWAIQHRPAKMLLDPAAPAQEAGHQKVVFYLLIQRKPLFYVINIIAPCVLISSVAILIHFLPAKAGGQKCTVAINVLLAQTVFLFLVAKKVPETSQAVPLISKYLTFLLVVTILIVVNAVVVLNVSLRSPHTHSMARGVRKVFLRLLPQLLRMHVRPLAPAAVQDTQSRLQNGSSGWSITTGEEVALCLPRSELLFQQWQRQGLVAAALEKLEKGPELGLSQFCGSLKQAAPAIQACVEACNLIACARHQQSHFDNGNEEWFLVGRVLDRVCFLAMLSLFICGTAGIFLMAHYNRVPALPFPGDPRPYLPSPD
Chain of Monoamine Oxidase MAO-B (P27338 whole entry): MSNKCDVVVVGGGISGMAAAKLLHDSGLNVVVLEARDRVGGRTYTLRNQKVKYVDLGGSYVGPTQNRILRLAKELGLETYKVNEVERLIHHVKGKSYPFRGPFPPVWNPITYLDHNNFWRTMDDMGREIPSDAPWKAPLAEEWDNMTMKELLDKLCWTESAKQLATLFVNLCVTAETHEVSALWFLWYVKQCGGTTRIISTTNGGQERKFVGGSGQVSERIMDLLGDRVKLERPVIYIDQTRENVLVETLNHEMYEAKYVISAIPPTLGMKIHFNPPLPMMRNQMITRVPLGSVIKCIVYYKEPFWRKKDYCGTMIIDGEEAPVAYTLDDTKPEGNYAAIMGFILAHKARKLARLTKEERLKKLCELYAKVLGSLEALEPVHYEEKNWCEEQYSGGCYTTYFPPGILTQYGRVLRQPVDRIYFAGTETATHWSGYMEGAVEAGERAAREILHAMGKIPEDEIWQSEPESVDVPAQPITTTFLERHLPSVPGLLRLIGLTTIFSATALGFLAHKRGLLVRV
Chain of Neuropeptide Y Y1 (P25929 whole entry): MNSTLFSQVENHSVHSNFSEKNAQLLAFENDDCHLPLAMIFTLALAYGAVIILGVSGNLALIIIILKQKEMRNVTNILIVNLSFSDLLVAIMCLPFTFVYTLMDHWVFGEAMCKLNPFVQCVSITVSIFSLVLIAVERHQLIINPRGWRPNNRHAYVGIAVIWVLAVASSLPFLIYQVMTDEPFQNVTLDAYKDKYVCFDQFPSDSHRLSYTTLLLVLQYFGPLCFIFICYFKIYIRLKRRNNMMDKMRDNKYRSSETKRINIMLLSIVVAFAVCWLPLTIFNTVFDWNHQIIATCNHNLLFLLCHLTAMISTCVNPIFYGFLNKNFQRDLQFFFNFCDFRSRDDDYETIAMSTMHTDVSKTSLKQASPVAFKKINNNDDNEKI
Chain of Opiate μ (OP3, MOP) (P35372 whole entry): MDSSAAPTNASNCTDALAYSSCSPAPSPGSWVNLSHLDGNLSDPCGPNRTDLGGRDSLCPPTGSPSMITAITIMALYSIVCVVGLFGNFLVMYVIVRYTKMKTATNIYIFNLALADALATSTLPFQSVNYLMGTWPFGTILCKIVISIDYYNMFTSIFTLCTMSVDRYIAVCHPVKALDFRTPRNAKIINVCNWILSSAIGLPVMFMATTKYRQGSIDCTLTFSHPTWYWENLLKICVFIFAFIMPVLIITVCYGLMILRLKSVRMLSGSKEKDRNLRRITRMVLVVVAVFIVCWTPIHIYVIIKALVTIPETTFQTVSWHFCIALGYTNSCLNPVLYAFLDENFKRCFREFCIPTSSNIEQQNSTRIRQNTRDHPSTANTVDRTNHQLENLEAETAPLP
Chain of Adrenergic β2 (P07550 whole entry): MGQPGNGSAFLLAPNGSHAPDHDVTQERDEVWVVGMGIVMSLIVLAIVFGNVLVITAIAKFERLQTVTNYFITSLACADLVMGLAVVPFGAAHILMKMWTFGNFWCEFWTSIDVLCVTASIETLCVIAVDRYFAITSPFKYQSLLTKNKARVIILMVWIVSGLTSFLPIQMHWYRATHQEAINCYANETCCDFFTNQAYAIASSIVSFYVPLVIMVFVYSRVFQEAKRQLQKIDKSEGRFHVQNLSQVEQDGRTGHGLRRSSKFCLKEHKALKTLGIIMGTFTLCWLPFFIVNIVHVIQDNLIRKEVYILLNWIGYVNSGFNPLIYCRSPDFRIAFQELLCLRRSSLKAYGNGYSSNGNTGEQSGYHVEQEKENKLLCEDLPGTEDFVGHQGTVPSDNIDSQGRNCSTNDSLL
Chain of Cholinesterase, Acetyl, ACES (P22303 32-614): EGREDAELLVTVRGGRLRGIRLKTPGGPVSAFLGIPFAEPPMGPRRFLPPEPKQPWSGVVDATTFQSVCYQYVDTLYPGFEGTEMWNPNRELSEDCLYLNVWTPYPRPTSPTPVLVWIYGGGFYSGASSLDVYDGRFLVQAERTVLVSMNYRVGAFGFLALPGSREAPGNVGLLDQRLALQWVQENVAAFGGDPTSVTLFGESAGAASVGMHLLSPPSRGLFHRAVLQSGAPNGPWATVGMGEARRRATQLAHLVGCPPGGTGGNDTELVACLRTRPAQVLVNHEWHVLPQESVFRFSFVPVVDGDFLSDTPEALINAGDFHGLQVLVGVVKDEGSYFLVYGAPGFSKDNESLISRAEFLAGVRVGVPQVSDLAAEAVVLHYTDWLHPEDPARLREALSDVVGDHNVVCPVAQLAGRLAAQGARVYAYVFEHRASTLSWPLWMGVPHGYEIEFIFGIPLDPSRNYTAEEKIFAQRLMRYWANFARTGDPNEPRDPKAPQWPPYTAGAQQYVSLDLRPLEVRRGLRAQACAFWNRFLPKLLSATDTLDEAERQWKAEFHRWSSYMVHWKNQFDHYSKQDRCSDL
Chain of Adrenergic α1D (P25100 whole entry): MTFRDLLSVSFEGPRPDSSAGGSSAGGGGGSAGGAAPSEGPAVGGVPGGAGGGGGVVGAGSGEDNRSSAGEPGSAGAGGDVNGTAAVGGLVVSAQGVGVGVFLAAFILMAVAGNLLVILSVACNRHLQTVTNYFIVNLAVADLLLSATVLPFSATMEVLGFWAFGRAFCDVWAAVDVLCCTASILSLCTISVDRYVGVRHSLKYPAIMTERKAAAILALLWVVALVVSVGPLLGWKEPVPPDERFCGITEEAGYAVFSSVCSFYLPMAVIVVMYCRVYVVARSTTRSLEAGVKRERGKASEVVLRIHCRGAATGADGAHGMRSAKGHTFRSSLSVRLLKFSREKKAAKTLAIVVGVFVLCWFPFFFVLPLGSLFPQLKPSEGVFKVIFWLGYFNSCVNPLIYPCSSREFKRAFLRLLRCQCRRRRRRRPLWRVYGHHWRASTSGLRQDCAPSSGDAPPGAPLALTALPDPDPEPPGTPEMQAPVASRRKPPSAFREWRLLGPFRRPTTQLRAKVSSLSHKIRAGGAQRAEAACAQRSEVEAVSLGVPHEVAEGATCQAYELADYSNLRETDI

COc1ccc(CN2CCN(CCO)CC2)c(OC)c1OC [CV-8814, 2-(4-(2,3,4-trimethoxybenzyl)piperazin-1-yl)ethan-1-01]
< 50%: all assays above
